Laboratory results as given in US20140073760A1, “USE OF AN ANG-(1-7) RECEPTOR AGONIST IN ACUTE LUNG INJURY” (Charite-Universitatsmedizin Berlin, priority 2008, published 2014).
Entries after “also recorded” stand apart in the source; their conditions may differ. Non-standard residues stand in square brackets, D forms with d. No end group written: not given here.

System: oleic acid induced acute lung injury
Assay: Oleic acid induced acute lung injury (ALI) in anesthetized, ventilated rats
Format: in vivo, male Sprague-Dawley rats
Conditions: rat
Procedure: Experiments were performed in male Sprague-Dawley rats (Charles River Wiga GmbH, Sulzfeld, Germany) with a body weight (bw) of 330-360 g. Animals received care in accordance with the Guide for the Care and Use of Laboratory Animals (Institute of Laboratory Animal Resources, 7th edition 1996). The study was approved by the local animal care and use committee.
Rats were anesthetized by intraperitoneal injection of medetomidine (0.5 mg/kg bw, Domitor®, Dr. E. Graeub AG, Basel, Switzerland), fentanyl (0.05 mg/kg bw, JanssenCilag, Neuss, Germany) and midazolam (5 mg/kg bw, Dormicum®, Roche, Basel, Switzerland) as previously described (17). Following tracheotomy, the trachea was cannulated and ventilation was established (Advanced Animal Respirator, TSE Systems GmbH, Bad Homburg, Germany) with a tidal volume of 6 ml/kg bw at 80 breaths/min. Catheters (internal diameter 0.58 mm; Sims Portex Ltd., Hythe, United Kingdom) were introduced into the left carotid artery and the right internal jugular vein for monitoring of arterial blood pressure (AP), fluid replacement and drug delivery as previously described (18). An ultrasonic flowprobe (Transonic®, Transonic Systems Inc., Ithaca, N.Y.) was placed around the ascending aorta distal to the branching of the coronary arteries for continuous monitoring of cardiac output (CO). After median thoracotomy, a catheter was introduced via the right ventricle into the pulmonary artery for measurement of pulmonary artery pressure (PAP). AP, PAP and CO were continuously recorded by the software package DasyLab 32 (DasyLab, Moenchengladbach, Germany). Pulmonary vascular resistance (PVR) was calculated as arteriovenous pressure differences over flow under the assumption of a constant left atrial pressure of 2 mmHg.
In group 2 (OA), ALI was induced by intravenous infusion of 0.2 mg/kg oleic acid (Sigma, Munich, Germany) over 30 min in the absence of any treatment. In group 3 (OA+Ang-(1-7)), ALI was induced as in group II, and infusion of Ang-(1-7) at 5 pmol/kg per min was initiated immediately after ALI induction. In group 4 (OA+AVE0991), ALI was induced as in group II, and infusion of AVE0991 at 500 pmol/kg per min was initiated immediately after ALI induction. In two additional groups of n=6 each, in which only myeloperoxidase (MPO) activity was measured, infusion of the Ang-(1-7) receptor blocker A779 (10 pmol/kg per min) was initiated either alone (group 5) or in combination with Ang-(1-7) (5 pmol/kg per min; group 6) immediately after induction of ALI.
After surgical preparation and hemodynamic stabilization over at least 15 min, baseline hemodynamics were recorded and arterial blood gases analyzed (RapidLab 348; Chiron Diagnostics GmbH, Fernwald, Germany). Removed blood volume was replaced by hydroxyethyl starch (6% hydroxyethyl starch 200/0.6; Fresenius, Bad Homburg, Germany). Immediately after baseline recordings, 0.2 mg/kg oleic acid was infused intravenously over 30 min in groups II-VI or an equal volume of 0.9% NaCl in group I. In all groups, measurements were repeated in 60 min intervals up to a total of 4 h at which time animals were sacrificed by exsanguination. After in situ ligation of the right main bronchus, lungs were excised and processed for determination of wet-to-dry weight ratio and myeloperoxidase (MPO) activity as described below.
For determination of lung water content, wet-to-dry weight ratio was measured by use of the microwave drying technique (18). Recruitment of inflammatory cells was analyzed by measurements of MPO activity in lung homogenates as previously described (19). In brief, MPO activity was determined by a 3,3′-5,5′-tetramethylbenzidine (TMB)-based photometric assay, compared to appropriate standard curves, and expressed as units per gram lung tissue (U/g).
All data are presented as mean±SEM. Data were tested by Kruskal-Wallis test for differences between groups. Statistical significance was assumed at P<0.05.

Row | Substance | rescue effect of Ang-(1-7) infusion on OA-induced ALI (lung MPO activity) (A779 10 pmol/kg per min in combination with Ang-(1-7) 5 pmol/kg per min after OA, only MPO measured) | OA-induced ALI (lung MPO activity) (A779 infusion 10 pmol/kg per min alone after OA, only MPO measured) | OA-induced change in lung wet-to-dry weight ratio (Ang-(1-7) infusion 5 pmol/kg per min after OA, 4 h, FIG. 1(B)) | systemic arterial pressure (systemic hypotension in OA-infused rats) (Ang-(1-7) infusion 5 pmol/kg per min after OA, 4 h, FIG. 1(C)) | OA-induced change in pulmonary vascular resistance (Ang-(1-7) infusion 5 pmol/kg per min after OA, 4 h, FIG. 1(D)) | OA-induced change in lung MPO activity (Ang-(1-7) infusion 5 pmol/kg per min after OA, 4 h, lung homogenates, FIG. 1(A)) | development of OA-induced ALI (OA 0.2 mg/kg i.v. over 30 min, Ang-(1-7) infusion 5 pmol/kg per min started immediately after ALI induction, 4 h) | lung oedema and inflammation in oleic-acid induced ALI (infusion after OA, conclusion of the study)
1 | Asp^1-Arg^2-Val^3-Tyr^4-Ile^5-His^6-D-Ala^7 (DRVYIH[dA]) [A779, reference compound] | blocks the rescue effect of Ang-(1-7) infusion; also recorded: lost after Mas blockade | aggravates OA-induced ALI; also recorded: aggravated after Mas blockade |  |  |  |  |  | 
2 | Asp^1-Arg^2-Val^3-Tyr^4-Ile^5-His^6-Pro^7 [Ang-(1-7)] |  |  | abrogated OA-induced changes | attenuated systemic hypotension | abrogated OA-induced changes | abrogated OA-induced changes | completely prevented the development of OA-induced ALI | completely prevents lung oedema and inflammation
